# From PubChem BioAssay AID1918994 (Molecular Pharmacology Branch, DTP, NCI, 2023)
# “And” between values parts separate entries of the source, which are not always exact repeats. Identical values can stand only once.
# Test system: 292921-168-R-J2-PDC complex spheroid growth
# Assay: Anticancer human tumor 292921-168-R-J2-PDC patient-derived pancreatic carcinoma cell line growth inhibition [AhR]
# Settings: compound 0.316 µM; stronger effect = lower value
# Description: Multicellular complex tumor spheroid response to aryl hydrocarbon receptor antagonists in combination with a variety of drugs and investigational agents in selected tumor cell lines
# The current study was undertaken to assess response to aryl hydrocarbon receptor antagonists in combination with standard-of-care drugs and investigational agents in solid tumor complex spheroid models. Complex spheroids include a stromal component modeled by human endothelial cells (HUVEC) and fibroblasts modeled by human mesenchymal stem cells (MSCs). The concentration ranges selected for each drug and investigational agent were based upon clinically achievable concentrations if the clinical Cmax of the agent was known.
# Compounds. The drugs and investigational agents: BAY 2416964 (NSC825713), GNF351 (NSC835774), CH-223191 (NSC835775), CPI-455 (NSC825282), aza-TdCyd (NSC777586), decitabine (NSC127716), belinostat (NSC758774), entinostat (NSC756642), pevonedistat (NSC761192), tazemetostat (NSC777109), talazoparib (NSC765396), olaparib (NSC753686), selinexor (NSC780203), nedisertib (M3814, NSC802822), bortezomib (NSC756655), venetoclax (NSC766270), doxorubicin (NSC123127), elimusertib (BAY189344, NSC800525), ceralasertib (AZD6738, NSC777638), TAK-243 (NSC785004), alisertib (NSC759677), etoposide (NSC141540), topotecan (NSC609699), eribulin (NSC707389), gemcitabine (NSC613327), carboplatin (NSC241240), cisplatin (NSC119875), and SN-38 (NSC673596) were obtained from the National Cancer Institute (NCI) Developmental Therapeutics Program Chemical Repository (32). The FDA-approved anticancer drug set is available from the Developmental Therapeutics Program at https://dtp.cancer.gov/organization/dscb/obtaining/available plates.htm. […] The stock solutions were prepared in dimethyl sulfoxide (DMSO, Sigma-Aldrich, St. Louis, MO, cat. D2650), except for the platinum compounds which were prepared in saline (Quality Biological, Gaithersburg, MD, cat. 114-055-101), at 800-fold the tested concentration and stored at -70 degrees C prior to their use. All drugs and investigational agents were tested over a range starting from a high concentration at or near the clinical Cmax and decreasing in half-log increments. If the clinical Cmax for an agent had not been determined, the highest concentration tested was 10 microM (Table 1).
# Cell Culture. All cells were maintained in an incubator at 37 degrees C and 5% CO2 with 95% humidity. The PDC lines were cultured according to standard operating procedures established by the NCI PDMR (https://pdmr.cancer.gov). Briefly, all PDCs were thawed and cultured in Matrigel-coated flasks prepared with a working solution of 1X Ham's F-12 nutrient mix, without supplementation (Invitrogen, Waltham, MA, cat. 11765054), 100 U/mL penicillin-streptomycin (Invitrogen, cat. 15140122), and 2.5% Matrigel (Corning Inc., Corning, NY, cat. 354248) for the first three passages. All PDCs were cultured in complete DMEM/F-12 media containing advanced DMEM/F-12 (Invitrogen, cat. 12634028), 4.9% defined fetal bovine serum, heat inactivated (HyClone Laboratories Inc., Logan, UT, cat. SH30070.03HI), 389 ng/mL hydrocortisone (Sigma-Aldrich, cat. H4001), 9.7 ng/mL human EGF recombinant protein (Invitrogen, cat. PHG0313), 23.4 microg/mL adenine (Sigma-Aldrich, cat. A2786), 97.3 U/mL penicillin-streptomycin (Invitrogen, cat. 15140122), 1.9 mM L-glutamine (Invitrogen, cat. 25030081), and 9.7 microM Y-27632 dihydrochloride (Tocris Bioscience, Bristol, United Kingdom, cat. 1254). The PDCs were cultured in complete DMEM/F12 media without 10 microM Y-27632 dihydrochloride for at least two passages prior to the screen. The established cell lines NCI-H1341 and […] were cultured in DMEM/F-12, HEPES (Invitrogen, cat. 11330032), 5% defined fetal bovine serum (HyClone Laboratories Inc., cat. SH30070.03), ITS premix universal culture supplement [insulin (5 microg/mL), transferrin (5 microg/mL), and selenious acid (5 ng/mL)] […]
# 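Further: spheroids exposed to compounds for seven days after three days of growth.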
row,Compound,"viability, T/C"
1,COc1cc(Nc2ncc3c(n2)-c2ccc(Cl)cc2C(c2c(F)cccc2OC)=NC3)ccc1C(=O)O,49.9% and 53.6% and 45.8%
2,COc1ccc([C@@H](O)c2cc(-c3ncnc4cc(N5CCOCC5)ccc34)c(F)cc2Cl)nn1,88% and 86.4% and 84.7%
3,COc1cccc2c1C(=O)c1c(O)c3c(c(O)c1C2=O)CC(O)(C(=O)CO)CC3OC1CC(N)C(O)C(C)O1 (centres undefined),10.9% and 4.94% and 7.46%
4,Cc1cncc(-c2nc(NCCc3c[nH]c4ccccc34)c3ncn(C(C)C)c3n2)c1,89.1% [middle of 20 runs]
5,NS(=O)(=O)OCC1CC(n2ccc3c(NC4CCc5ccccc54)ncnc32)CC1O (centres undefined),27.1% and 16.2% and 25.9%
6,Nc1ccccc1NC(=O)c1ccc(CNC(=O)OCc2cccnc2)cc1,44.2% and 57.2% and 42.1%
7,Nc1ccn(C2OC(CO)C(O)C2(F)F)c(=O)n1 (centres undefined),9.66% and 9.32% and 10.4%
8,Nc1ncn(C2CC(O)C(CO)O2)c(=O)n1 (centres undefined),86.8% and 83% and 89%
9,O=C(C=Cc1cccc(S(=O)(=O)Nc2ccccc2)c1)NO,45.1% and 51.2% and 40.3%
10,O=C(c1cc(Cc2n[nH]c(=O)c3ccccc23)ccc1F)N1CCN(C(=O)C2CC2)CC1,95.5% and 93.5% and 84.8%

# Same assay, conditions: compound 0.949 µM; stronger effect = lower value
row,Compound,"viability, T/C"
1,CCN(c1cc(-c2ccc(CN3CCOCC3)cc2)cc(C(=O)NCc2c(C)cc(C)[nH]c2=O)c1C)C1CCOCC1,99.8% and 89.8% and 102%
2,O=C(C=Cn1cnc(-c2cc(C(F)(F)F)cc(C(F)(F)F)c2)n1)NNc1cnccn1,25.6% and 18.9% and 22.2%

# Same assay, conditions: compound 1 µM; stronger effect = lower value
row,Compound,"viability, T/C"
1,CC(C)c1c(-c2ccccc2)nc2c(C#N)c[nH]n2c1=O,115% and 91% and 98.9%
2,CC(CO)NC(=O)c1cc(-c2ccc(Cl)cc2)nn(-c2cnn(C)c2)c1=O (centres undefined),99.2% [middle of 20 runs]
3,CC1(C)CCC(CN2CCN(c3ccc(C(=O)NS(=O)(=O)c4ccc(NCC5CCOCC5)c([N+](=O)[O-])c4)c(Oc4cnc5[nH]ccc5c4)c3)CC2)=C(c2ccc(Cl)cc2)C1,106% and 116% and 102%
4,CC1COCCN1c1cc(-c2ccnn2C)c2ccnc(-c3ccn[nH]3)c2n1 (centres undefined),19.2% and 17.7% and 17.8%
5,CC1COCCN1c1cc(C2(S(C)(=N)=O)CC2)nc(-c2ccnc3[nH]ccc23)n1 (centres undefined),89.2% and 77.6% and 79.8%
6,COc1cc(C2c3cc4c(cc3C(OC3OC5COC(C)OC5C(O)C3O)C3COC(=O)C23)OCO4)cc(OC)c1O (centres undefined),43.2% and 38.8% and 31.6%
7,COc1cc(Nc2ncc3c(n2)-c2ccc(Cl)cc2C(c2c(F)cccc2OC)=NC3)ccc1C(=O)O,57.9% and 51.2% and 43%
8,COc1ccc([C@@H](O)c2cc(-c3ncnc4cc(N5CCOCC5)ccc34)c(F)cc2Cl)nn1,64.6% and 70.2% and 62.2%
9,COc1cccc2c1C(=O)c1c(O)c3c(c(O)c1C2=O)CC(O)(C(=O)CO)CC3OC1CC(N)C(O)C(C)O1 (centres undefined),0.32% (2×) and 0.28%
10,Cc1cncc(-c2nc(NCCc3c[nH]c4ccccc34)c3ncn(C(C)C)c3n2)c1,80.5% [middle of 20 runs]
11,NS(=O)(=O)OCC1CC(n2ccc3c(NC4CCc5ccccc54)ncnc32)CC1O (centres undefined),6.6% and 3.53% and 5.82%
12,Nc1ccccc1NC(=O)c1ccc(CNC(=O)OCc2cccnc2)cc1,38.7% and 39.4% and 26.1%
13,Nc1ccn(C2OC(CO)C(O)C2(F)F)c(=O)n1 (centres undefined),10.1% and 11.1% and 8.88%
14,Nc1ncn(C2CC(O)C(CO)O2)c(=O)n1 (centres undefined),76.3% and 76.8% and 78.2%
15,O=C(C=Cc1cccc(S(=O)(=O)Nc2ccccc2)c1)NO,40.8% and 41.1% and 34.5%
16,O=C(c1cc(Cc2n[nH]c(=O)c3ccccc23)ccc1F)N1CCN(C(=O)C2CC2)CC1,98.6% and 97.8% and 91.6%

# Same assay, conditions: compound 3 µM; stronger effect = lower value
row,Compound,"viability, T/C"
1,CCN(c1cc(-c2ccc(CN3CCOCC3)cc2)cc(C(=O)NCc2c(C)cc(C)[nH]c2=O)c1C)C1CCOCC1,93.2% and 91% and 90.2%
2,O=C(C=Cn1cnc(-c2cc(C(F)(F)F)cc(C(F)(F)F)c2)n1)NNc1cnccn1,15.2% and 10.5% and 13.3%

# Same assay, conditions: compound 3.16 µM; stronger effect = lower value
row,Compound,"viability, T/C"
1,CC(C)c1c(-c2ccccc2)nc2c(C#N)c[nH]n2c1=O,106% and 102% and 99.9%
2,CC(CO)NC(=O)c1cc(-c2ccc(Cl)cc2)nn(-c2cnn(C)c2)c1=O (centres undefined),88.8% [middle of 19 runs]
3,CC1(C)CCC(CN2CCN(c3ccc(C(=O)NS(=O)(=O)c4ccc(NCC5CCOCC5)c([N+](=O)[O-])c4)c(Oc4cnc5[nH]ccc5c4)c3)CC2)=C(c2ccc(Cl)cc2)C1,102% and 109% and 94%
4,CC1COCCN1c1cc(C2(S(C)(=N)=O)CC2)nc(-c2ccnc3[nH]ccc23)n1 (centres undefined),58% and 44.7% and 50.7%
5,COc1cc(C2c3cc4c(cc3C(OC3OC5COC(C)OC5C(O)C3O)C3COC(=O)C23)OCO4)cc(OC)c1O (centres undefined),29% and 26% and 19.7%
6,COc1cc(Nc2ncc3c(n2)-c2ccc(Cl)cc2C(c2c(F)cccc2OC)=NC3)ccc1C(=O)O,49.8% and 40.5% and 41.5%
7,COc1ccc([C@@H](O)c2cc(-c3ncnc4cc(N5CCOCC5)ccc34)c(F)cc2Cl)nn1,42.2% and 44.8% and 43.1%
8,COc1cccc2c1C(=O)c1c(O)c3c(c(O)c1C2=O)CC(O)(C(=O)CO)CC3OC1CC(N)C(O)C(C)O1 (centres undefined),0.76% (2×) and 0.73%
9,NS(=O)(=O)OCC1CC(n2ccc3c(NC4CCc5ccccc54)ncnc32)CC1O (centres undefined),5.73% and 3.02% and 4.02%
